SMILES strings stand for the structures.

Sequence of N-formyl peptide receptor 2 (Homo sapiens) (P25090 whole entry, looked up): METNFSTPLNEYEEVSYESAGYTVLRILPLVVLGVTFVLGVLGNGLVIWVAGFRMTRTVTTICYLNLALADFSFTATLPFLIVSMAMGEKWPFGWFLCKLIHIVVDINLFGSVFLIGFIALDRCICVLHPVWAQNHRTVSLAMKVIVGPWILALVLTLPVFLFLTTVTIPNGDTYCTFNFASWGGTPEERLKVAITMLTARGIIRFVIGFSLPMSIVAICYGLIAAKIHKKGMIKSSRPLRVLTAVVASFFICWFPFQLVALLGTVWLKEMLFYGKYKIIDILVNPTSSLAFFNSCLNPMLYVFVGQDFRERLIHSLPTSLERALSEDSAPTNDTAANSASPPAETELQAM

The test has as its target N-formyl peptide receptor 2 (Homo sapiens) (UniProt P25090). The test is described as follows: FPRL1 fluorescent ligand binding inhibitors, dose response, cell-based, flow cytometry, Ki from IC50 (AID 766). Particulars: FPRL1-expressing cells, fluorescent ligand binding competition, binding constant from IC50.
Broadly, the Ki is the dissociation constant of the complex between target and ligand, obtained from inhibition or displacement. Higher therefore signals a looser hold on the target. `COc1ccc(-c2cc(C(F)(F)F)nc(N3CCN(Cc4ccccc4)CC3)n2)cc1OC` returned a Ki of 10 µM.
For `COc1ccc(-c2cn3cccnc3n2)cc1NC(=O)C1CCCC1` the value was greater than 39.9 µM; for `COc1ccc(-c2cc(C(F)(F)F)nc(N3CCN(C(c4ccccc4)c4ccccc4)CC3)n2)cc1OC`, greater than 25.1 µM.
The compound `CCOC(=O)N1CCN(c2nc(-c3ccc(OC)c(OC)c3)cc(C(F)(F)F)n2)CC1` displayed an inhibitory constant (Ki) greater than 30.5 µM.
Take `COc1ccc(-c2cn3cccnc3n2)cc1NC(=O)C1CC1`: the Ki was found to be 4.1 µM.
In the case of `CCC(=O)Nc1cc(-c2cn3cccnc3n2)ccc1OC` it was 6.5 µM; in that of `O=C(N1CCN(c2nc(-c3ccccc3)c3ccccc3n2)CC1)C(F)(F)F`, greater than 34.7 µM; in that of `COc1ccc(CC(=O)Nc2cc(-c3cn4cccnc4n3)ccc2OC)cc1`, 6 µM.
In the case of `COc1ccc(-c2cc(C(F)(F)F)nc(N3CCN(c4ccccc4)CC3)n2)cc1OC` it was greater than 30.2 µM.
`COc1ccc(-c2cn3cccnc3n2)cc1NC(=O)C(C)C` yielded an inhibition constant Ki of 2.2 µM.
